Data from the NIST ThermoML archive (doi:10.1016/j.fluid.2018.09.026).
Where “and” joins values, the source holds several entries; their conditions need not be identical. Equal values may be shown once.

Details: Liquid; for mass density: Vibrating tube method; for viscosity: Vibrating wire viscometry

OCCOCCO [diethylene glycol]
Details | mass density | viscosity
323.15 K, 19770 kPa | 1103.6 kg/m3 | –
323.15 K, 24680 kPa | 1105.8 kg/m3 | –
323.15 K, 29600 kPa | 1108 kg/m3 | –
323.15 K, 34530 kPa | 1110.1 kg/m3 | –
323.15 K, 39360 kPa | 1112.2 kg/m3 | –
323.15 K, 44290 kPa | 1114.3 kg/m3 | –
323.15 K, 49260 kPa | 1116.3 kg/m3 | –
323.15 K, 54100 kPa | 1118.2 kg/m3 | –
323.15 K, 59060 kPa | 1120.2 kg/m3 | –
323.15 K, 63880 kPa | 1122 kg/m3 | –
323.15 K, 68770 kPa | 1123.8 kg/m3 | –
333.15 K, 100 kPa | 1087 kg/m3 | –
333.15 K, 660 kPa | 1087.3 kg/m3 | –
333.15 K, 1120 kPa | 1087.5 kg/m3 | –
333.15 K, 1630 kPa | 1087.8 kg/m3 | –
333.15 K, 2100 kPa | 1088 kg/m3 | –
333.15 K, 3070 kPa | 1088.5 kg/m3 | –
333.15 K, 5060 kPa | 1089.5 kg/m3 | –
333.15 K, 7050 kPa | 1090.5 kg/m3 | –
333.15 K, 9930 kPa | 1091.9 kg/m3 | –
333.15 K, 14780 kPa | 1094.3 kg/m3 | –
333.15 K, 19770 kPa | 1096.7 kg/m3 | –
333.15 K, 24660 kPa | 1099 kg/m3 | –
333.15 K, 29540 kPa | 1101.2 kg/m3 | –
333.15 K, 34500 kPa | 1103.4 kg/m3 | –
333.15 K, 39330 kPa | 1105.5 kg/m3 | –
333.15 K, 44230 kPa | 1107.6 kg/m3 | –
333.15 K, 49130 kPa | 1109.7 kg/m3 | –
333.15 K, 54060 kPa | 1111.7 kg/m3 | –
333.15 K, 59020 kPa | 1113.7 kg/m3 | –
333.15 K, 63840 kPa | 1115.7 kg/m3 | –
333.15 K, 68830 kPa | 1117.5 kg/m3 | –
333.28 K, 210 kPa | – | 7.305 mPa·s [middle of 6 runs]
333.28 K, 1080 kPa | – | 7.347 mPa·s and 7.376 mPa·s and 7.374 mPa·s
333.28 K, 2290 kPa | – | 7.397 mPa·s [middle of 6 runs]
333.28 K, 5100 kPa | – | 7.491 mPa·s
333.28 K, 5110 kPa | – | 7.506 mPa·s and 7.492 mPa·s
333.28 K, 5120 kPa | – | 7.53 mPa·s and 7.547 mPa·s
333.28 K, 10340 kPa | – | 7.758 mPa·s and 7.739 mPa·s
333.28 K, 10360 kPa | – | 7.749 mPa·s and 7.734 mPa·s
333.28 K, 19960 kPa | – | 8.178 mPa·s [middle of 5 runs]
333.28 K, 30150 kPa | – | 8.721 mPa·s and 8.673 mPa·s
333.28 K, 30160 kPa | – | 8.678 mPa·s and 8.671 mPa·s
333.28 K, 40000 kPa | – | 9.197 mPa·s
333.28 K, 40010 kPa | – | 9.192 mPa·s and 9.199 mPa·s and 9.178 mPa·s
333.28 K, 50250 kPa | – | 9.728 mPa·s and 9.806 mPa·s
333.28 K, 50260 kPa | – | 9.736 mPa·s
333.28 K, 68880 kPa | – | 10.71 mPa·s
333.28 K, 69100 kPa | – | 10.77 mPa·s
333.28 K, 69180 kPa | – | 10.8 mPa·s
342.75 K, 250 kPa | – | 5.567 mPa·s and 5.585 mPa·s and 5.609 mPa·s
342.75 K, 260 kPa | – | 5.588 mPa·s and 5.573 mPa·s
342.75 K, 1040 kPa | – | 5.634 mPa·s [middle of 5 runs]
342.75 K, 2130 kPa | – | 5.655 mPa·s [middle of 5 runs]
342.75 K, 5010 kPa | – | 5.77 mPa·s
342.75 K, 5020 kPa | – | 5.764 mPa·s and 5.765 mPa·s
342.75 K, 9990 kPa | – | 5.9 mPa·s and 5.894 mPa·s and 5.912 mPa·s
342.75 K, 10000 kPa | – | 5.925 mPa·s
342.75 K, 20270 kPa | – | 6.257 mPa·s and 6.245 mPa·s
342.75 K, 20280 kPa | – | 6.256 mPa·s and 6.268 mPa·s
342.75 K, 30150 kPa | – | 6.641 mPa·s [middle of 6 runs]
342.75 K, 39690 kPa | – | 6.989 mPa·s
342.75 K, 39700 kPa | – | 6.991 mPa·s
342.75 K, 39710 kPa | – | 6.946 mPa·s and 6.939 mPa·s and 6.957 mPa·s
342.75 K, 50090 kPa | – | 7.319 mPa·s [middle of 6 runs]
342.75 K, 70440 kPa | – | 8.133 mPa·s
342.75 K, 70450 kPa | – | 8.148 mPa·s
342.75 K, 70460 kPa | – | 8.145 mPa·s
342.75 K, 70480 kPa | – | 8.152 mPa·s
342.75 K, 70500 kPa | – | 8.131 mPa·s
342.75 K, 70510 kPa | – | 8.177 mPa·s
343.15 K, 100 kPa | 1079.7 kg/m3 | –
343.15 K, 670 kPa | 1080 kg/m3 | –
343.15 K, 1100 kPa | 1080.2 kg/m3 | –
343.15 K, 1520 kPa | 1080.4 kg/m3 | –
343.15 K, 2120 kPa | 1080.7 kg/m3 | –
343.15 K, 3060 kPa | 1081.2 kg/m3 | –
343.15 K, 5040 kPa | 1082.3 kg/m3 | –
343.15 K, 6970 kPa | 1083.3 kg/m3 | –
343.15 K, 9950 kPa | 1084.8 kg/m3 | –
343.15 K, 14870 kPa | 1087.3 kg/m3 | –
343.15 K, 19740 kPa | 1089.6 kg/m3 | –
343.15 K, 24710 kPa | 1092.1 kg/m3 | –
343.15 K, 29560 kPa | 1094.4 kg/m3 | –
343.15 K, 34490 kPa | 1096.6 kg/m3 | –
343.15 K, 39350 kPa | 1098.8 kg/m3 | –
343.15 K, 44290 kPa | 1101 kg/m3 | –
343.15 K, 49180 kPa | 1103.1 kg/m3 | –
343.15 K, 54070 kPa | 1105.2 kg/m3 | –
343.15 K, 58980 kPa | 1107.3 kg/m3 | –
343.15 K, 63910 kPa | 1109.3 kg/m3 | –
343.15 K, 68720 kPa | 1111.2 kg/m3 | –
353.15 K, 100 kPa | 1072.2 kg/m3 | –
353.15 K, 560 kPa | 1072.5 kg/m3 | –
353.15 K, 1090 kPa | 1072.8 kg/m3 | –
353.15 K, 1550 kPa | 1073 kg/m3 | –
353.15 K, 2080 kPa | 1073.3 kg/m3 | –
353.15 K, 3040 kPa | 1073.8 kg/m3 | –
353.15 K, 5060 kPa | 1074.9 kg/m3 | –
353.15 K, 7020 kPa | 1076 kg/m3 | –
353.15 K, 9970 kPa | 1077.5 kg/m3 | –
353.15 K, 14830 kPa | 1080.1 kg/m3 | –
353.15 K, 19740 kPa | 1082.6 kg/m3 | –
353.15 K, 24680 kPa | 1085.1 kg/m3 | –
353.15 K, 29560 kPa | 1087.5 kg/m3 | –
353.15 K, 34550 kPa | 1089.8 kg/m3 | –
353.15 K, 39420 kPa | 1092.1 kg/m3 | –
353.15 K, 44280 kPa | 1094.3 kg/m3 | –
353.15 K, 49230 kPa | 1096.5 kg/m3 | –
353.15 K, 54110 kPa | 1098.7 kg/m3 | –
353.15 K, 59020 kPa | 1100.8 kg/m3 | –
353.15 K, 64010 kPa | 1102.9 kg/m3 | –
353.15 K, 68770 kPa | 1104.8 kg/m3 | –
362.81 K, 230 kPa | – | 3.458 mPa·s [middle of 4 runs]
362.81 K, 240 kPa | – | 3.444 mPa·s
362.81 K, 1070 kPa | – | 3.462 mPa·s and 3.469 mPa·s
362.81 K, 2190 kPa | – | 3.473 mPa·s and 3.514 mPa·s and 3.458 mPa·s
362.81 K, 5080 kPa | – | 3.546 mPa·s [middle of 5 runs]
362.81 K, 9970 kPa | – | 3.652 mPa·s [middle of 4 runs]
362.81 K, 20040 kPa | – | 3.834 mPa·s
362.81 K, 20050 kPa | – | 3.862 mPa·s and 3.82 mPa·s and 3.837 mPa·s
362.81 K, 30200 kPa | – | 4.039 mPa·s
362.81 K, 30210 kPa | – | 4.007 mPa·s
362.81 K, 40240 kPa | – | 4.264 mPa·s and 4.237 mPa·s
362.81 K, 40250 kPa | – | 4.205 mPa·s and 4.242 mPa·s
362.81 K, 50100 kPa | – | 4.435 mPa·s
362.81 K, 50110 kPa | – | 4.47 mPa·s and 4.453 mPa·s
362.81 K, 69940 kPa | – | 4.921 mPa·s
362.81 K, 69950 kPa | – | 4.913 mPa·s
362.81 K, 70000 kPa | – | 4.894 mPa·s
362.81 K, 70020 kPa | – | 4.924 mPa·s
363.08 K, 100 kPa | 1064.5 kg/m3 and 1064.4 kg/m3 | –
363.08 K, 620 kPa | 1064.7 kg/m3 | –
363.08 K, 1110 kPa | 1065 kg/m3 | –
363.08 K, 1570 kPa | 1065.2 kg/m3 | –
363.08 K, 2100 kPa | 1065.5 kg/m3 | –
363.08 K, 3020 kPa | 1066 kg/m3 | –
363.08 K, 5070 kPa | 1067.2 kg/m3 | –
363.08 K, 7000 kPa | 1068.3 kg/m3 | –
363.08 K, 9970 kPa | 1069.9 kg/m3 | –
363.08 K, 14840 kPa | 1072.6 kg/m3 | –
363.08 K, 19750 kPa | 1075.1 kg/m3 | –
363.08 K, 24660 kPa | 1077.7 kg/m3 | –
363.08 K, 29610 kPa | 1080.2 kg/m3 | –
363.08 K, 34480 kPa | 1082.6 kg/m3 | –
363.08 K, 39400 kPa | 1084.9 kg/m3 | –
363.08 K, 44290 kPa | 1087.2 kg/m3 | –
363.08 K, 49160 kPa | 1089.5 kg/m3 | –
363.08 K, 54110 kPa | 1091.7 kg/m3 | –
363.08 K, 58990 kPa | 1093.9 kg/m3 | –
363.08 K, 63880 kPa | 1096 kg/m3 | –
363.08 K, 68760 kPa | 1098 kg/m3 | –
